Converted amounts (≈) assume the structure as drawn.
Tests used:
[1] = test system: HFF (human foreskin fibroblast) cells; assay: Cytotoxicity in human primary cell cultures (Trypan Blue Staining); assay type: cell-based; settings: HFF cells, 48 hours, Trypan Blue Staining
Description: (1) HFF (human foreskin fibroblast) cells (2×105) were seeded with 2 ml of DMEM medium supplemented with 10% FBS in each well of two 12-well tissue culture plates. (2) Cells were cultured for 3 days. CSA-44 was added to test for cell toxicity. Eleven concentrations were tested: 40 μg/ml, 30 μg/ml, […], 17.5 μg/ml, 15 μg/ml, 12.5 μg/ml, 10 μg/ml, 7.5 μg/ml, 5 μg/ml, 2.5 μg/ml, and 1 μg/ml. Samples with concentration of 0 μg/ml were used as the control. Each concentration was tested in duplicates with two wells. (3) Cells were cultured for 48 hours with CSA-44. Trypan Blue Staining was used to determine the numbers of living and dead cells on a hemocytometer. Percentages of living and dead cells in each sample were calculated.
(1) HFF cells (2×105) were seeded with 2 ml of DMEM medium supplemented with 10% FBS in each well of two 12-well tissue culture plates. (2) Cells were cultured for 3 days. CMA Conjugate was added to test for cell toxicity. Eleven concentrations were tested. They were 100 μg/ml, 80 μg/ml, 60 μg/ml, 50 μg/ml, 40 μg/ml, 30 μg/ml, 25 μg/ml, 20 μg/ml, 15 μg/ml, 10 μg/ml, and 5 μg/ml. Samples with concentration of 0 μg/ml were used as the control. Each concentration was tested in duplicates with two wells. (3) Cells were cultured for 48 hours with CMA Conjugate. […] Percentages of living and dead cells in each sample were calculated.

[2] = test system: human coronavirus 229E; assay: Therapeutic activity against human coronavirus 229E in HFF cells; assay type: cell-based; settings: added 24 hours post infection, cell viability
Description: (1) HFF cells (5×104) were seeded with 1 ml of DMEM media supplemented with 10% FBS in each well of four 24-well tissue culture plates. (2) Cell were cultured for 3 days until HFF cells in each well attained 90% confluency (media was changed 1 day before infection). 10 μl of the 10-time diluted original solution of coronavirus, about 1×10^5 PFU were added into each well. Infection was allowed to proceed overnight. (3) The media was changed 24 hours post infection. CSA-44 was added to test their anti-viral effects. Ten different concentrations of the drug were tested. They were 15 μg/ml, 10 μg/ml, 9 μg/ml, 8 μg/ml, 7 μg/ml, 6 μg/ml, 5 μg/ml, 4 μg/ml, 3 μg/ml, and 2 μg/ml with 0 μg/ml as the control. Each concentration has 12 wells for test. Cells were cultured for two weeks, and cell viability was quantified. CSA-44 was effective in inhibiting viral replication and growth. The values of EC50 (where EC is the concentration of the active that gives 50% of the maximal response) of CSA-44 is identified as 4 μg/ml.
(1) HFF cells (5×104) were seeded with 1 ml of DMEM media supplemented with 10% FBS in each well of four 24-well tissue culture plates. (2) Cells were cultured for 3 days until HFF cells in each well attained 90% confluency (media was changed 1 day before infection). Ten μl of the 10-time diluted original solution of coronavirus, about 1×10^5 PFU, were added into each well. Infection was allowed to proceed overnight. (3) The media was changed 24 hours post infection. Different concentrations of CSA-44 were added to test their anti-viral effects. Each concentration has 12 wells for test. Cells were cultured in the presence of CSA-44 for […] and cell viability was quantified.
(1) HFF cells (5×104) were seeded with 1 ml of DMEM media supplemented with 10% FBS in each well of four 24-well tissue culture plates. (2) Cells were cultured for 3 days until HFF cells in each well attained 90% confluency (media was changed 1 day before infection). […] Cells were cultured for two weeks, and cell viability was quantified. […]

SMILES: CCCCCCCCOC(=O)CC[C@@H](C)[C@H]1CC[C@H]2[C@@H]3[C@H](OC(=O)CCN)C[C@@H]4C[C@H](OC(=O)CCN)CC[C@]4(C)[C@H]3C[C@H](OC(=O)CCN)[C@]12C [CSA-44]
- CC50 [1]: around 15 μg/ml
- EC50 ([2]; cells cultured for three weeks): ~4 µg/mL (≈ 5.45 µM)
- EC50 ([2]; cells cultured for two weeks): 4 µg/mL (≈ 5.45 µM)
